From US7087768B2, “Fumagillol derivatives and preparing method thereof” (Equispharm Co., Ltd., priority 2001, dated 2006)
In brackets after ≈: the same amount, converted by molar mass. Like-named read-outs stand apart in the source and are kept apart here.

System: HUVECs (human umbilical vein endothelial cells)
Test: Inhibitory effect of fumagillol derivative on HUVEC cell growth (colorimetry)
Type: cell-based
Settings: Homo sapiens, HUVEC growth, cultured 2–3 days with compound, absorption at 490 nm, read-out: IC50
Experimental: Using the HUVECs (human umbilical vein endothelial), the effect of the fumagillol derivative of the present invention on cell growth was evaluated.
The HUVECs were added to M199 medium supplemented with 20% FBS (fetal bovine serum), 100 U/ml penicillin, 100 μg/ml streptomycin, 1.5 g/L sodium bicarbonate, 0.1 mg/ml endothelial cell growth supplement (Sigma) and 0.1 mg/ml heparin (Sigma), after which the cells were incubated in an incubator at 37° C. under 5% CO2. Cells were subcultured a maximum of 8 times before being discarded.
In order to evaluate inhibitory activity of the fumagillin derivative on growth of HUVECs, the inventive compound was dissolved in DMSO and its concentration was adjusted from 10 mM to 1 mM. Cells were aliquotted to 96 well plates at a density of 2×10^3 cells per well and incubated for about 12–24 hours to be properly attached to the plate. Thereafter, the medium was replaced with new medium. The cells were treated with the compound obtained from each of the above examples at various concentration ranges of from 10 μM to […], and cultured for 2–3 days, followed by removing 100 μl of the medium from each well.
Colorimetry was performed to determine the extent of cell growth. The cells on each plate was added with 20 μl of aqueous one solution and then incubated at 37° C. under 5% CO2 for 2 hours. Using a 96-well plate reader, absorption was measured at 490 nm.
As such, a conventional TNP-470 having angiogenesis inhibitory effect was used as a control.

| Structure (SMILES) | IC50 (HUVEC) [ng/mL] | IC50 [ng/mL] |
| --- | --- | --- |
| CO[C@@H]1[C@H](OC(=O)CNC(C)C(C)(C)C)CC[C@]2(CO2)[C@H]1[C@@]1(C)OC1CC=C(C)C (stereo partly shown) [Ex. 53, 6-O-(1,2,2-trimethylpropylamino)acetyl fumagillol] | 162 (≈ 382 nM) |  |
| CCCCCNCC(=O)O[C@@H]1CC[C@]2(CO2)[C@@H]([C@@]2(C)OC2CC=C(C)C)[C@@H]1OC (stereo partly shown) [Ex. 48, 6-O-(pentylamino)acetyl fumagillol] | 3000 (≈ 7320 nM) |  |
| CO[C@@H]1[C@H](OC(=O)CNc2ccc(OCC(C)C)cc2)CC[C@]2(CO2)[C@H]1[C@@]1(C)OC1CC=C(C)C (stereo partly shown) [Ex. 11] | 0.08 (≈ 0.164 nM) |  |
| COc1ccc(NCC(=O)O[C@@H]2CC[C@]3(CO3)[C@@H]([C@@]3(C)OC3CC=C(C)C)[C@@H]2OC)cc1CN(C)C (stereo partly shown) [Ex. 10, 6-O-(3-(dimethylaminomethyl)-4-methoxyaniline)acetyl fumagillol] | 0.06 (≈ 0.119 nM) |  |
| CO[C@@H]1[C@H](OC(=O)CNC2CC2)CC[C@]2(CO2)[C@H]1[C@@]1(C)OC1CC=C(C)C (stereo partly shown) [Ex. 63, 6-O-(cyclopropylamino)acetyl fumagillol] | 0.008 (≈ 0.0211 nM) |  |
| CO[C@@H]1[C@H](OC(=O)CCl)CC[C@]2(CO2)[C@H]1[C@@]1(C)OC1CC=C(C)C (stereo partly shown) [Intermediate, 6-O-(chloro)acetyl fumagillol] | 2000 (≈ 5570 nM) |  |
| CC/C=C(C)/C=C/CNCC(=O)O[C@@H]1CC[C@]2(CO2)[C@@H]([C@@]2(C)OC2CC=C(C)C)[C@@H]1OC (stereo partly shown) [Ex. 57, 6-O-(4-methyl-hepta-2,4-dienylamino)acetyl fumagillol] | 420 (≈ 938 nM) |  |
| CO[C@@H]1[C@H](OC(=O)NC(=O)CCl)CC[C@]2(CO2)[C@H]1[C@@]1(C)O[C@@H]1CC=C(C)C [TNP-470, reference compound] | 29 (≈ 72.2 nM) |  |
| CO[C@@H]1[C@H](OC(=O)CNCC(C)N(C)C)CC[C@]2(CO2)[C@H]1[C@@]1(C)OC1CC=C(C)C (stereo partly shown) [Ex. 69, 6-O-(2-dimethylamino-propylamino)acetyl fumagillol] | 260 (≈ 612 nM) |  |
| CO[C@@H]1[C@H](OC(=O)CNc2ccc(OCCO)cc2)CC[C@]2(CO2)[C@H]1[C@@]1(C)OC1CC=C(C)C (stereo partly shown) [Ex. 35, 6-O-(4-hydroxyethoxyaniline)acetyl fumagillol] | 116 (≈ 244 nM) |  |
| CO[C@@H]1[C@H](OC(=O)CNC(C)C)CC[C@]2(CO2)[C@H]1[C@@]1(C)OC1CC=C(C)C (stereo partly shown) [Ex. 42, 6-O-(isopropylamino)acetyl fumagillol] | 12 (≈ 31.5 nM) |  |
| COc1ccc(NCC(=O)O[C@@H]2CC[C@]3(CO3)[C@@H]([C@@]3(C)OC3CC=C(C)C)[C@@H]2OC)c(OC)c1 (stereo partly shown) [Ex. 3, 6-O-(2,4-dimethoxyaniline)acetyl fumagillol] | 0.09 (≈ 0.189 nM) |  |
| C=C(C)CNCC(=O)O[C@@H]1CC[C@]2(CO2)[C@@H]([C@@]2(C)OC2CC=C(C)C)[C@@H]1OC (stereo partly shown) [Ex. 56, 6-O-(2-methyl-allylamino)acetyl fumagillol] |  | 28 (≈ 71.2 nM) |
